Reference: PubChem BioAssay AID1963960 (Molecular Pharmacology Branch, DTP, NCI, 2024)

System: MDA-MB-468 spheroids with HUVEC/MSC, viability
Assay: Anticancer human tumor MDA-MB-468 cell line growth inhibition [PI3K];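 note: spheroids exposed to agents for seven days before readout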;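 for viability, T/C: 100% = DMSO vehicle control viability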
Conditions: for IC50: curve of first compound; for viability, T/C: stronger effect = lower value
Outline: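 Targeted small molecules plus PI3K inhibitors, half-log dose series from Cmax (default top 10 microM), were applied to heterotypic spheroids of cancer cells with HUVEC and MSCs. Viability indicated growth inhibition.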

[1] = second compound 0.00316 µM, first compound 0.0316 µM
[2] = second compound 0.00316 µM, first compound 0.1 µM
[3] = second compound 0.00316 µM, first compound 0.316 µM
[4] = second compound 0.00316 µM, first compound 1 µM
[5] = second compound 0.00316 µM, first compound 3.16 µM
[6] = second compound 0.00316 µM, first compound 10 µM
[7] = second compound 0.01 µM, first compound 0.0316 µM
[8] = second compound 0.01 µM, first compound 0.1 µM
[9] = second compound 0.01 µM, first compound 0.316 µM
[10] = second compound 0.01 µM, first compound 1 µM
[11] = second compound 0.01 µM, first compound 3.16 µM
[12] = second compound 0.01 µM, first compound 10 µM
[13] = second compound 0.0316 µM, first compound 0.0316 µM
[14] = second compound 0.0316 µM, first compound 0.1 µM
[15] = second compound 0.0316 µM, first compound 0.316 µM
[16] = second compound 0.0316 µM, first compound 1 µM
[17] = second compound 0.0316 µM, first compound 3.16 µM
[18] = second compound 0.0316 µM, first compound 10 µM
[19] = second compound 0.1 µM, first compound 0.0316 µM
[20] = second compound 0.1 µM, first compound 0.1 µM
[21] = second compound 0.1 µM, first compound 0.316 µM
[22] = second compound 0.1 µM, first compound 1 µM
[23] = second compound 0.1 µM, first compound 3.16 µM
[24] = second compound 0.1 µM, first compound 10 µM
[25] = second compound 0.316 µM, first compound 0.0316 µM
[26] = second compound 0.316 µM, first compound 0.1 µM
[27] = second compound 0.316 µM, first compound 0.316 µM
[28] = second compound 0.316 µM, first compound 1 µM
[29] = second compound 0.316 µM, first compound 3.16 µM
[30] = second compound 0.316 µM, first compound 10 µM
[31] = second compound 1 µM, first compound 0.0316 µM
[32] = second compound 1 µM, first compound 0.1 µM
[33] = second compound 1 µM, first compound 0.316 µM
[34] = second compound 1 µM, first compound 1 µM
[35] = second compound 1 µM, first compound 3.16 µM
[36] = second compound 1 µM, first compound 10 µM

CC1(C)CCC(Nc2ncc(C(F)(F)F)c(-c3c[nH]c4c(P(C)(C)=O)c(C#N)ccc34)n2)CN1 (stereo unspecified) + CC(Nc1ccc2c(c1)OCCn1cc(N3C(=O)OCC3C(F)F)nc1-2)C(N)=O was tested, and the IC50 (second compound 0.00316 µM) was under 0.0316 µM, the IC50 (second compound 0.01 µM) was under 0.0316 µM and the IC50 (second compound 0.0316 µM) was under 0.0316 µM. For the same compound, the IC50 (second compound 0.1 µM) was under 0.0316 µM, the IC50 (second compound 0.316 µM) was under 0.0316 µM and the IC50 (second compound 1 µM) was under 0.0316 µM. The viability, T/C [1] was 9.78%, the viability, T/C [2] was 9.47% and the viability, T/C [3] was 9.65%. The viability, T/C [4] was 8.55%, the viability, T/C [5] was 8.68% and the viability, T/C [6] was 1.56%. The viability, T/C [7] was 10.6%, the viability, T/C [8] was 11.4% and the viability, T/C [9] was 9.42%. It also gave a viability, T/C [10] of 8.7%, a viability, T/C [11] of 7.16% and a viability, T/C [12] of 2.11%. For the same compound, the viability, T/C [13] was 11.1%, the viability, T/C [14] was 9.59% and the viability, T/C [15] was 7.86%. It also gave a viability, T/C [16] of 8.01%, a viability, T/C [17] of 7.19% and a viability, T/C [18] of 1.24%. It also gave a viability, T/C [19] of 11.6%, a viability, T/C [20] of 10% and a viability, T/C [21] of 9.28%. For the same compound, the viability, T/C [22] was 8.9%, the viability, T/C [23] was 7.73% and the viability, T/C [24] was 1.12%. It also gave a viability, T/C [25] of 11.5%, a viability, T/C [26] of 9.36% and a viability, T/C [27] of 8.28%. The viability, T/C [28] was 8.77%, the viability, T/C [29] was 6.8% and the viability, T/C [30] was 1.12%. The viability, T/C [31] was 11.7%, the viability, T/C [32] was 9% and the viability, T/C [33] was 8.85%. It also gave a viability, T/C [34] of 10.9%, a viability, T/C [35] of 5.99% and a viability, T/C [36] of 1.09%.

For Cn1ncc(Cl)c1-c1cc(C(=O)NC(CN)Cc2cccc(F)c2)sc1Cl (stereo unspecified) + CC(Nc1ccc2c(c1)OCCn1cc(N3C(=O)OCC3C(F)F)nc1-2)C(N)=O, the IC50 (second compound 0.00316 µM) was 0.306 µM, the IC50 (second compound 0.01 µM) was 0.359 µM and the IC50 (second compound 0.0316 µM) was 0.284 µM. For the same compound, the IC50 (second compound 0.1 µM) was 0.229 µM, the IC50 (second compound 0.316 µM) was 0.157 µM and the IC50 (second compound 1 µM) was 0.133 µM. For the same compound, the viability, T/C [1] was 89.7%, the viability, T/C [2] was 72.2% and the viability, T/C [3] was 42.9%. For the same compound, the viability, T/C [4] was 35.6%, the viability, T/C [5] was 22% and the viability, T/C [6] was 7.53%. The viability, T/C [7] was 83.7%, the viability, T/C [8] was 74.4% and the viability, T/C [9] was 44.8%. It also gave a viability, T/C [10] of 36.4%, a viability, T/C [11] of 25.6% and a viability, T/C [12] of 5.85%. The viability, T/C [13] was 91.2%, the viability, T/C [14] was 71.8% and the viability, T/C [15] was 39.9%. It also gave a viability, T/C [16] of 33.7%, a viability, T/C [17] of 22.1% and a viability, T/C [18] of 3.85%. It also gave a viability, T/C [19] of 78.7%, a viability, T/C [20] of 63.6% and a viability, T/C [21] of 39.8%. For the same compound, the viability, T/C [22] was 33.6%, the viability, T/C [23] was 20.8% and the viability, T/C [24] was 4.34%. It also gave a viability, T/C [25] of 75.8%, a viability, T/C [26] of 59.6% and a viability, T/C [27] of 33.8%. It also gave a viability, T/C [28] of 27.5%, a viability, T/C [29] of 19.2% and a viability, T/C [30] of 4.28%. The viability, T/C [31] was 76.2%, the viability, T/C [32] was 53% and the viability, T/C [33] was 37.2%. For the same compound, the viability, T/C [34] was 21.8%, the viability, T/C [35] was 18.9% and the viability, T/C [36] was 3.04%.

Cn1nccc1Nc1nccc(-c2ccn(C(CO)c3ccc(Cl)c(F)c3)c(=O)c2)n1 (stereo unspecified) + CC(Nc1ccc2c(c1)OCCn1cc(N3C(=O)OCC3C(F)F)nc1-2)C(N)=O was tested, and the IC50 (second compound 0.00316 µM) was over 10 µM, the IC50 (second compound 0.01 µM) was over 10 µM and the IC50 (second compound 0.0316 µM) was over 10 µM. The IC50 (second compound 0.1 µM) was over 10 µM, the IC50 (second compound 0.316 µM) was over 10 µM and the IC50 (second compound 1 µM) was over 10 µM. The viability, T/C [1] was 85.3%, the viability, T/C [2] was 96.8% and the viability, T/C [3] was 87.2%. The viability, T/C [4] was 90.4%, the viability, T/C [5] was 96.1% and the viability, T/C [6] was 87.9%. For the same compound, the viability, T/C [7] was 97%, the viability, T/C [8] was 89.1% and the viability, T/C [9] was 87.8%. The viability, T/C [10] was 94.9%, the viability, T/C [11] was 101% and the viability, T/C [12] was 82.6%. It also gave a viability, T/C [13] of 95.3%, a viability, T/C [14] of 86.6% and a viability, T/C [15] of 88.6%. For the same compound, the viability, T/C [16] was 80.1%, the viability, T/C [17] was 108% and the viability, T/C [18] was 77.8%. It also gave a viability, T/C [19] of 88%, a viability, T/C [20] of 89.2% and a viability, T/C [21] of 77.7%. For the same compound, the viability, T/C [22] was 81%, the viability, T/C [23] was 87.5% and the viability, T/C [24] was 73.1%. The viability, T/C [25] was 90%, the viability, T/C [26] was 82.5% and the viability, T/C [27] was 89.6%. For the same compound, the viability, T/C [28] was 87.6%, the viability, T/C [29] was 82.7% and the viability, T/C [30] was 60.7%. It also gave a viability, T/C [31] of 85.5%, a viability, T/C [32] of 74.3% and a viability, T/C [33] of 74.7%. It also gave a viability, T/C [34] of 74.8%, a viability, T/C [35] of 81.2% and a viability, T/C [36] of 55.2%.
